In a melting point compilation (Tetko et al.; mined from patent text by program, amines drawn as free bases though some values may be those of a salt):

First: COc1cccc(-c2cccc(OC3SCC(OC(C)=O)C(OC(C)=O)C3OC(C)=O)c2)n1 (stereo not drawn)
Second: CCCCOC(=O)C1C(C(C)=O)C(=O)N1C(Cc1ccc(OC)cc1)Cc1ccc(OC)cc1 (stereo not drawn)
The melting point of the first is higher: 195 °C for the first, 92.5 to 94 °C for the second.

First: CCCC1CC(=O)c2c(NC(=O)C(=O)OCC)ccc(C)c21 (stereo not drawn)
Second: COCCOC(=O)Nc1cccc(C)c1COc1cccn2c(C)c(C)nc12
The melting point of the first is lower: 84 to 86 °C for the first, 107 to 108 °C for the second.

First: CNc1ccc(C(=O)Nc2cccc(-c3nc(NC)nc4cc(OC)c(OC)cc34)c2)cn1
Second: COc1cc2cccc(OC)c2cc1C(=O)O
The melting point of the first is higher: 193 to 195 °C for the first, 151 to 153 °C for the second.

First: O=C1N(Cc2ccc(-c3noc(C(F)(F)F)n3)cc2)c2ccccc2C12COc1cc3c(cc12)CCO3 (stereo not drawn)
Second: CN1CCN(c2cc(Cl)cc3c2c(=O)n(Cc2ccc(Cl)cc2)c(=O)n3Cc2ccccc2)CC1
The melting point of the first is higher: 178 to 179 °C for the first, 92 to 97 °C for the second.

First: COc1ccc(/C=C2/c3cc(OC)c(OC)cc3CCN2C(=O)c2cc(OC)c(OC)c(OC)c2)cc1OC
Second: COc1cc(Nc2c(C#N)cnc3cc4cc(OC)c(OCCN5CCC(O)CC5)cc4cc23)c(Cl)cc1C
The melting point of the first is lower: 195 to 200 °C for the first, 205 to 235 °C for the second.

First: CCc1ccc(CC2CNC(=O)O2)cc1 (stereo not drawn)
Second: CC(C)(Oc1ccc(Cc2ccccc2)cc1)C(=O)O
The melting point of the first is higher: 133 to 134 °C for the first, 130 °C for the second.

Compared with `Cn1c(C(F)(F)F)cc(=O)n(-c2ccc(Cl)cc2F)c1=O`, `CC(C)n1c(=O)n(C)c2cc(-c3ncc(C(F)(F)F)cc3Cl)ccc21` is lower in melting point: 114 to 116 °C for the first, 108 to 109 °C for the second.

First: O=C(c1ccc(Nc2ccnc3cc(C(F)(F)F)ccc23)cc1)N1CCC(S(=O)c2ccc(F)cc2)CC1 (stereo not drawn)
Second: CS(=O)(=O)c1ccc(-c2cc(C(F)(F)F)nn2-c2ccc(F)cc2)cc1F
The melting point of the first is lower: 215 to 216 °C for the first, 228 to 229 °C for the second.

First: COc1cccc(C=CCN2CCc3nc(N)sc3CC2)c1
Second: CN(C)C1CCN(CCc2ccc(-c3cccc(N)n3)cc2)CC1
The melting point of the first is lower: 120 to 124 °C for the first, 174 to 176 °C for the second.

First: Cc1cc(O)n2nc(CC(=O)O)nc2n1
Second: Cc1cc(NS(=O)(=O)c2nc3nc(Cl)cc(Cl)n3n2)ccc1Br
The melting point of the first is higher: 266 to 270 °C for the first, 232 to 234 °C for the second.

`O=c1oc2c(c(O)c1C(c1ccccc1)C1CC1)CCCCC2CC1CCCOC1` (stereo not drawn) and `O=C(Cc1ccc(Cl)c(Cl)c1)N1CCCC2CCCC(N3CCCC3)C21` (stereo not drawn) cannot be ordered by melting point: 82 to 90 °C for the first, 82 to 84 °C for the second.

Compared with `CC(=O)Nc1nc(CCc2ccc(N)cc2)c(C(=O)NCc2ccc(C(F)(F)F)cc2)s1`, `NCCc1cccc(N2CCN(c3ccc(CCC(=O)O)cc3)C2=O)c1` is higher in melting point: 199 to 201 °C for the first, > 250 °C for the second.

First: N#CC1=C(C#N)Sc2nc3ccccc3nc2S1
Second: CC(C)c1cc(-c2ccc(N)c3ccccc23)nc(N)n1
The melting point of the first is higher: > 300 °C for the first, 185 to 186 °C for the second.

First: CCCCCCCCOc1ccc(O)c2ccccc12
Second: CCCCc1ncc(/C=C(/CO)Cc2cccs2)n1Cc1ccccc1Cl
The melting point of the first is lower: 73 to 74 °C for the first, 114 to 115 °C for the second.

First: CC(=O)Sc1c(C)nn2c3ccccc3n(C(C)=O)c12
Second: Cc1cn(C(C)C(=O)N2CCCC2)nc1-c1ccccc1 (stereo not drawn)
The melting point of the first is higher: 191 to 193 °C for the first, 72 to 74 °C for the second.

Compared with `CC(C)(CC(=O)O)C(Cl)CC(Cl)(Cl)C(F)(F)F` (stereo not drawn), `COC(=O)c1sc(C(F)(F)F)cc1OC` is higher in melting point: 61 °C for the first, 78 to 79 °C for the second.

Compared with `CCCN1CC(CO)CC2c3cccc4[nH]cc(c34)CC21` (stereo not drawn), `Cn1c2ccc(Cl)cc2c2c3ccccc3c(OCC3CC3)nc21` is lower in melting point: 166 to 168 °C for the first, 141 to 142 °C for the second.

First: N#CCCNNC(=O)c1ccc(OCc2ccccc2)cc1
Second: N#Cc1ccc(Oc2ccc(CC(=O)OCc3ccccc3)cc2)nc1
The melting point of the first is higher: 136 °C for the first, 96 to 97 °C for the second.

Compared with `N#CCc1ccc(Br)nc1`, `CC(O)=C(C#N)C(=O)Nc1cccc(F)c1` is higher in melting point: 55.5 to 57.5 °C for the first, 136 to 138 °C for the second.

First: Cc1cc(-c2cc(F)c(F)cc2-c2ccc(S(N)(=O)=O)cc2)ccc1F
Second: Cn1cc(C2=C(c3cn(C)c4ccc(N)cc34)C(=O)NC2=O)c2ccccc21
The melting point of the first is lower: 152 °C for the first, 254 to 256 °C for the second.

First: Cc1cc(CN2N=C(C(F)(F)C(F)(F)F)NC2(O)c2ccc(Cl)cc2)ccc1[N+](=O)[O-] (stereo not drawn)
Second: O=Cc1ccccc1Oc1ccc(C(F)(F)F)cc1[N+](=O)[O-]
The melting point of the first is higher: 90 to 92 °C for the first, 79 to 81 °C for the second.

First: N#CC(CCOc1ccc(Br)cc1)c1ccc(Cl)cc1Cl (stereo not drawn)
Second: CCN1CCC(C(=O)O)(S(=O)(=O)c2ccc(Oc3ccc(Cl)cc3)cc2)CC1
The melting point of the first is lower: 73.9 °C for the first, 184 °C for the second.

Compared with `CCOCC1=C(C(=O)OCC)C(c2ccc(OC)c(F)c2)C(C(=O)OCC)=C(C)N1` (stereo not drawn), `COC(=O)C1=C(C)NC(C)=C(C(=O)OCCCCCCCCN)C1c1cccc([N+](=O)[O-])c1` (stereo not drawn) is higher in melting point: 120 °C for the first, 129 to 131 °C for the second.

Compared with `CN(C1CC(C)(C)NC(C)(C)C1)C1CC(C)(C)NC(C)(C)C1`, `CC1(C)CC2(CC(C)(C)N1)NC(=O)N(CC(O)COc1ccc(Cc3ccc(OCC(O)CN4C(=O)NC5(CC(C)(C)NC(C)(C)C5)C4=O)cc3)cc1)C2=O` (stereo not drawn) is higher in melting point: 51 to 53 °C for the first, 113 to 118 °C for the second.

First: O=C(O)C1CNC(C(=O)O)c2[nH]c3ccc(F)cc3c21 (stereo not drawn)
Second: O=C(NC(=S)Nc1ccc(F)cc1)c1ccccc1
The melting point of the first is higher: 233 to 234 °C for the first, 82 °C for the second.

First: Cc1cc(I)ccc1O
Second: N#Cc1cc(C(=O)NN2CCOCC2)ccc1O
The melting point of the first is lower: 64 to 65 °C for the first, 238 to 240 °C for the second.

Compared with `CCN1CCCC1CNC(=O)Cc1ccc(-c2ccc3c(=O)c(-c4ncc[nH]4)c(N)n(CC)c3n2)cc1F` (stereo not drawn), `CNNc1ccc(-c2ccc3c(=O)c(C(=O)O)cn(C4CC4)c3c2C)cn1` is higher in melting point: 100 °C for the first, 246 °C for the second.

First: NC1=CC(=O)CC(c2ccccc2)C1 (stereo not drawn)
Second: CSC1C(=O)c2ccccc2N1C(=O)c1ccccc1 (stereo not drawn)
The melting point of the first is higher: 190 to 191 °C for the first, 126 to 128 °C for the second.

First: CCn1cc(C(=O)O)c(=O)c2cc(F)c(N3CCN(C)C(c4ccsc4)C3)cc21 (stereo not drawn)
Second: CCCn1c(=O)n(-c2ccc3c(c2)OCO3)c2ncc(F)cc21
The melting point of the first is higher: 226 to 228 °C for the first, 153 to 154 °C for the second.

First: CCOC(=O)c1cnc2c(c(-c3ccccc3)nn2C)c1N(C)S(=O)(=O)c1ccc(Oc2ccncc2)cc1
Second: Cc1sc(-c2ccccc2)nc1COc1ccc(COc2ncccc2CO)cc1
The melting point of the first is higher: 128 to 131 °C for the first, 111 to 112 °C for the second.

First: CCOC(=O)Cn1c(C(=O)NCc2nnc3n2-c2sc(CC)cc2C(c2ccccc2Cl)=NC3)cc2ccccc21
Second: CCn1c(C)c(C(=O)c2ccc(C)c3ccccc23)c2ccccc21
The melting point of the first is higher: 215 to 217 °C for the first, 136 to 137 °C for the second.

First: Cc1cc(SC2=C(O)C[C@@](CCc3ccccc3)(C(C)C)OC2=O)c(C(C)C)c2sc(N)nc12
Second: Cc1ccc2c(c1)C(C(=O)Nc1c(C(C)C)cccc1C(C)C)c1ccccc1CO2 (stereo not drawn)
The melting point of the first is lower: 160 to 162 °C for the first, 166 to 167 °C for the second.

Compared with `COC(=O)Nc1nc2ccc(Sc3ccccc3)cn2c1Br`, `CNC(=O)C(Sc1nc2cc(Cl)ccc2s1)c1ccccc1` (stereo not drawn) is higher in melting point: 165 to 168 °C for the first, 170 to 171 °C for the second.

First: Clc1ccc2oc(Cl)nc2c1
Second: O=Cc1c2ccccc2c(C=O)c2cc(Cl)ccc12
The melting point of the first is lower: 46 to 48 °C for the first, 192 to 195 °C for the second.

First: CNC(=O)c1cc(C#N)cc(Cl)c1NC(=O)c1cc(Cl)nn1-c1ncccc1Cl
Second: CN(C)CCCCCNc1nc2cc(Cl)c(Cl)cc2nc1-c1ccccn1
The melting point of the first is higher: 197 to 200 °C for the first, 100 to 102 °C for the second.

First: C=CCSC(C(=O)NC(C)=O)C(c1ccccc1)(c1ccccc1)c1ccccc1 (stereo not drawn)
Second: O=CCCOC(c1ccccc1)(c1ccccc1)c1ccccc1
The melting point of the first is higher: 193 to 194 °C for the first, 97 to 98 °C for the second.

`CC(O)C(CO)(Cc1cc(C(C)(C)C)c(O)c(C(C)(C)C)c1)Cc1cc(C(C)(C)C)c(O)c(C(C)(C)C)c1` (stereo not drawn) and `COC(=O)c1ccc(-c2ccc3cc4c(cc3c2)C(C)(C)CCC4(C)C)cc1O` cannot be ordered by melting point: 145 to 150 °C for the first, 145 to 146 °C for the second.

First: COc1cc(/C=C/[N+](=O)[O-])cc(OC)c1
Second: COc1cc2c(c(Cl)c1Cl)C1=CC(=O)CCC1(CCCCl)C2 (stereo not drawn)
The melting point of the first is lower: 132 °C for the first, 183 to 185 °C for the second.

First: N=C(NC(=O)c1cccc2ccccc12)N1CC(c2ccccc2)C(c2ccc(Cl)cc2)=N1 (stereo not drawn)
Second: CS(=O)(=O)c1ccc(-c2c(-c3ccc(F)cc3)c(OCC(=O)c3ccccc3)nn2CC(=O)c2ccccc2)cc1
The melting point of the first is higher: 206 to 207 °C for the first, 151 to 152 °C for the second.

Compared with `O=c1[nH]c(SCc2ccccc2)nc2c1NCN2C(c1ccccc1)(c1ccccc1)c1ccccc1`, `O=C1C(CCC(O)c2ccc(F)cc2)C(c2ccc(-c3ccccc3O)cc2)N1c1ccc(F)cc1` (stereo not drawn) is lower in melting point: 267 to 270 °C for the first, 101 °C for the second.

Compared with `COc1ccc(O)c(OC)c1-c1ccc(C[C@H](NC(=O)c2c(Cl)cccc2Cl)C(=O)O)cc1`, `COc1cc(C(=O)c2c(-c3ccc(OCCN4CCCC4)c(COCc4ccccc4)c3)sc3cc(O)ccc23)ccc1CN1CCOCC1` is lower in melting point: 164 to 165 °C for the first, 87 to 90 °C for the second.

First: CC(=O)c1ccc2nccc(OS(=O)(=O)C(F)(F)F)c2c1
Second: CN(C)C(=S)SCn1c(Br)c(Br)c(S(=O)(=O)C(F)(F)F)c1-c1ccc(Cl)cc1
The melting point of the first is lower: 94 °C for the first, 185 to 187 °C for the second.

Compared with `CC(=O)OC1CCC2(C)C(=CCC3C2CCC2(C=CCl)C(OC(C)=O)CCC32)C1` (stereo not drawn), `COc1ccc(C(=O)Nc2ccc(C(C)=O)cc2)cc1C12CC3CC(CC(C3)C1)C2` is higher in melting point: 155 to 156 °C for the first, 200 to 201 °C for the second.

First: CN(C)Cc1ccc(COCC(N)=O)s1
Second: NCc1cccc(CNC(N)=O)c1
The melting point of the first is lower: 86.5 to 95 °C for the first, 127 to 129 °C for the second.

Compared with `c1csc(-c2nc(CCOc3ccc(CCCn4ccnc4)cc3)co2)c1`, `Nc1nc(N)c2c(ccc3c2ccn3-c2ccncc2)n1` is higher in melting point: 77 to 78 °C for the first, 328 to 330 °C for the second.

First: O=S(=O)(c1ccccc1)N1CCC(Nc2nc(OCC(F)(F)F)nc(-n3ccnc3)n2)CC1
Second: Cc1nn(C)c2c1c1oc(=O)c(Sc3ccccc3)c(O)c1c(=O)n2Cc1ccc(F)cc1
The melting point of the first is higher: 201 to 203 °C for the first, 159 to 160 °C for the second.

First: CCC1(CCOCCNC(=O)NC2CCCCC2)Nc2cnc(C)c(C)c2N1 (stereo not drawn)
Second: CC(C)NC(=NC#N)Nc1ccc(C2=NNC(=O)CC2C)cc1 (stereo not drawn)
The melting point of the first is lower: 187 to 189 °C for the first, 255 °C for the second.

First: CC(C)(C)OC(=O)N1CCN(c2cccc3ccoc23)CC1
Second: CC(O)c1occc(=O)c1O (stereo not drawn)
The melting point of the first is lower: 98 to 100 °C for the first, 131 to 132 °C for the second.

First: NC(=O)CCCC(=O)NCCS
Second: CC(C)n1cnc2c(Cl)nc(I)nc21
The melting point of the first is higher: 127 °C for the first, 104 °C for the second.
